The assay relates to ADP-induced aggregation of human platelets. Format: cell-based. To be noted: Table 1; human platelet rich plasma; ADP 0.5 mcg/mL; read-out: Inhibition of Human Platelet Aggregation IC50 vs. ADP.

SMILES strings stand for the structures. Converted amounts (≈) assume the structure as drawn.

Procedure: The aggregometer method of Born, C. […] Clin. Med. 1964, 64, 548-599 was used to assess the in vitro activity of the various compounds as to the inhibition of adenosine diphosphate (ADP) and collagen-induced platelet aggregation. The human volunteer donor's arm is cleansed with 70% ethyl alcohol. A sterile 20 ml syringe and needle are used to withdraw 20 ml of blood. The blood is immediately added to a test tube containing 3.8% sodium citrate to prevent clotting (1 part citrate to 9 parts blood).
Platelet rich plasma (PRP) was separated by centrifugation for 10 minutes at 1000 rpm (140 xg) from citrated (3.8%) human blood. All glassware used for preparation of PRP is silicon treated. ADP in final concentration of 0.5 mcg/mL or 0.05 mL of a collagen suspension prepared according to the method described by Evans, G., et al., J. Exp. Med., 1968, 128, 877-894 was used to induce aggregation. The various compounds tested were dissolved in dimethylsulfoxide (DMSO) so that 5 mcl added to the platelet rich plasma would yield the desired test concentration. Vehicle control trials were done and compared with aggregation induced in platelet rich plasma containing various concentrations of the test compounds. Dose response curves were obtained and Inhibitor Concentration (IC50) values calculated.

Broadly, the IC50 is the concentration that gives 50% inhibition. For `COC(=O)CCCCCCCCN1C(=O)C(c2ccccc2)N(c2ccccc2)C1=O` (centres unmarked) [Example 1, methyl 2,5-dioxo-3,4-diphenyl-1-imidazolidinenonanoate], the IC50 was determined as 32 µg/mL (≈ 75.7 µM).

On to `O=C(O)CCCCCCCCN1C(=O)C(c2ccccc2)N(c2ccccc2)C1=O` (centres unmarked) [Example 2, 2,5-dioxo-3,4-diphenyl-1-imidazolidinenonanoic acid], for which the IC50 came to 11.9 µg/mL (≈ 29.1 µM).

The values are drawn from patent publication US4970225A, “Imidazolidine carboxylic acids and esters as blood platelet aggregation inhibitors” (Bristol-Myers Squibb Company, priority 1990, dated 1990).
